# According to patent EP0702683B1, “06-SUBSTITUTED GUANINE DERIVATIVES, A PROCESS FOR THEIR PREPARATION AND THEIR USE IN TREATING TUMOUR CELLS” (Cancer Research Technology Limited, priority 1993, dated 1994):
# pIC50: −log10 of the molar value. Like-named read-outs stand apart in the source and are kept apart here.
# Key:
# [1] = Stability of inactivators at 37°C (spectrophotometric half life); format: physicochemical
# Procedure: Inactivators (10mM in DMSO) were diluted to 0.1mM in prewarmed degassed buffer I (1mM EDTA, 50mM Tris pH 8.3) or PBS (pH 7-7.2). […] Samples were immediately transferred to a CARY13 spectrophotometer (cuvette block held at 37°C) and scanned at an appropriate wavelength (according to the spectral properties of the compound) at 3-10 minute intervals for up to 80 hours. The results were expressed as percentage absorbance change versus time and T1/2 values (half life) extrapolated from this.
# Raji cells = assay: Sensitization of Raji cells to BCNU (XTT assay); format: cell-based, human; details: BCNU, 2 hour pretreatment; for Raji sensitization (D90.^C/D90.^I) 0.5µM: inactivator 0.5µM; for Raji sensitization (D90.^C/D90.^I) 1.0µM: inactivator 1.0µM; for Raji sensitization (D90.^C/D90.^I) O.1µM: inactivator O.1µM
# Procedure: Following a 2 hour incubation at 37°C, medium containing either increasing doses of BCNU, temozolomide or equivalent vehicle was added and the cells allowed to grow for 6 days. At this time XTT solution was added and the cells incubated for a further 4 hours at 37°C. The resulting red/orange formazan reaction product was quantified by measuring absorption at 450nm on a microtitre platereader.
# ATase [2] = biological target: T1, ATase (Homo sapiens, UniProt P16455); assay: In vitro ATase inactivation assay with purified recombinant human ATase; format: biochemical; design: made in house; details: for effectiveness in the in vitro ATase inactivation assay compared with BeG: Figure 1, in words
# T1 sequence (P16455 1-207): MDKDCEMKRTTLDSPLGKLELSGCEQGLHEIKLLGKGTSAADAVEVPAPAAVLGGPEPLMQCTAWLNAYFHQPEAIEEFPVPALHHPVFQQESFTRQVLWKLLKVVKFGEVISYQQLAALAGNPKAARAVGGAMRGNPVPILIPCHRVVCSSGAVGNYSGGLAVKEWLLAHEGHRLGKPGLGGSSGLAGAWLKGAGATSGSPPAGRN
# Procedure: The cDNA cloning and overexpression of the human ATase has been reported previously^23. Purification of the recombinant proteins was achieved either by affinity chromatography through a DNA-cellulose column as described by Wilkinson et al.,^25, 26, or by DEAE-cellulose ion-exchange chromatography. For the latter, the ATase protein was partially purified by ammonium sulphate precipitation (30 - 60%) and dialysed against 10 mM Tris-HCl pH 7.5, 1 mM DTT, 2 mM EDTA, 10% glycerol, before loading on a DEAF-cellulose column. The ATase was then eluted with a 0-0.1 M NaCl gradient.
# Compounds to be tested were dissolved in DMSO to a final concentration of 10 mM and diluted just before use in buffer I containing 1 mg/ml bovine serum albumin (IBSA). Recombinant ATase was diluted in IBSA and titrated in order that the reaction be conducted under ATase, and not substrate, limiting conditions. In each assay, fixed amounts of ATase (60-75 fmol) were incubated with varying amounts of 0^6-benzylguanine, or test compound in a total volume of 200 µl of IBSA containing 10 µg of calf thymus DNA at 37°C for 1 hour. The [^3H]-methylated-DNA substrate (100 µl containing 6.7 µg of DNA and 100 fmol of 0^6-methylguanine) was added and incubation continued at 37° for 1 hour, until the reaction was completed. Following acid hydrolysis of the DNA as previously described^21 the [^3H]-methylated protein was recovered and quantitated by liquid scintillation counting. Samples were typically assayed in duplicate and experiments repeated several times. I50 is the concentration of inactivator required to produce a 50% reduction in ATase activity.
# ATase [3] = biological target: T1, ATase; assay: Inactivation of ATase activity in Raji cells; format: cell-based; design: endogenous in cells; host or cells: Raji; details: Raji cells, 2 hours at 37°C; read-out: Raji I50
# Procedure: Mammalian cells were cultured under standard conditions. For example, Raji (a human lymphoblastoid cell line from a Burkitt's lymphoma) cells were grown in suspension culture in RPMI medium supplemented with 10% horse serum. A375M cells are human melanoma cells from which the xenografts described below were established following subcutaneous injection into nude mice: WiDr cells are a human colon carcinoma cell line: Hamster+120 cells are a mitozolomide-selected subline of a Chinese hamster lung fibroblast V79 cell line called RJKO: Yoshida cells are a rat carcinosarcoma cell line and YRbus is a busulphan resistant subline thereof: XP cells are an SV40-transformed fibroblast cell line originally from the skin of a Xeroderma pigmentosum patient, pHMGhAT2b cells are a clone of these cells that have been transfected with a mammalian cell expression vector containing the human ATase cDNA and pHMGla cells are a clone that have been transfected with the expression vector only (i.e. one not containing the human ATase cDNA). Cell pellets were resuspended in cold (4°C) buffer I containing 2 µg/ml leupeptin and sonicated for 10 seconds at 12 µ peak to peak distance. After cooling in ice, the cells were sonicated for a further 10 seconds at 18 µ. Immediately after sonication, 0.01 volumes of 8.7 mg/ml phenylmethanesulphonylfluoride in ethanol was added and the sonicates centrifuged at 15 000 g for 10 minutes at 4°C to pellet cell debris. The supernatant was kept for determination of ATase activity (see below).
# Cells were diluted to 10^6/ml in culture medium containing either the appropriate concentration of inactivator or an equivalent volume of vehicle (DMSO). Following incubation at 37°C for 2 hours the cells were harvested by centrifugation, washed twice with PBS and the resulting cell pellets (between 1-2 x 10^7 per pellet) stored at -20°C.
# A375M cells = assay: Sensitization of A375M cells to BCNU (MTT assay); format: cell-based, human; details: for A375M sensitization (D50.^C/D50.^I) 0.5uM: inactivator 0.5uM 2 hours before; for A375M sensitization (D50.^C/D50.^I) 5.0uM: inactivator 5.0uM 2 hours before; for A375M sensitization (D50.^C/D50.^I) 1.0uM: inactivator 1.0uM 2 hours before
# Procedure: Sensitization of A375M cells to the cytotoxic effects of BCNU was analysed by MTT assay ^24 differing from the XTT assay described above as follows. […] After 6 days MTT solution (4mg/ml) was added and cells incubated for 3 hours at 37°C. Medium was aspirated and the resulting purple formazan crystals were solubilised in DMSO (120μl) and cell viability was quantified by measuring absorption at 540nm using a microtitre plate reader.
# [4] = 0.1mM in PBS (pH 7-7.2), read-out: T1/2(h) in PBS (converted)
# [5] = 0.1mM in buffer I (1mM EDTA, 50mM Tris pH 8.3), read-out: T1/2(h) in Buffer I (converted)
Structure (SMILES),"half-life at 100 µM [1, 4] [h]",Raji sensitization (D90.^C/D90.^I) 0.5µM (Raji cells),Raji sensitization (D90.^C/D90.^I) 1.0µM (Raji cells),Raji sensitization (D90.^C/D90.^I) O.1µM (Raji cells),pIC50 (ATase [2]),pIC50 (ATase [3]),"half-life at 100 µM [1, 5] [h]",A375M sensitization (D50.^C/D50.^I) 0.5uM (A375M cells),A375M sensitization (D50.^C/D50.^I) 5.0uM (A375M cells),effectiveness in the in vitro ATase inactivation assay compared with BeG (ATase [2]),A375M sensitization (D50.^C/D50.^I) 1.0uM (A375M cells)
"CC(Oc1nc(N)nc2[nH]cnc12)c1ccsc1 (racemic) [B.4219, DL-O^6-[1-(3-thienyl)ethyl]guanine]",0.12,1.0,1.0,1.0,4.07,< 6.00,–,–,–,–,–
"Nc1nc(OCc2ccsc2)c2nc[nH]c2n1 [B.4206, O^6-(3-thienylmethyl)guanine]",> 16,–,6.0,1.6,7.52,7.22,> 80,3.3,4.6,somewhat more effective than BeG,–
"Nc1nc(OCc2ccoc2)c2nc[nH]c2n1 [B.4209, O^6-(3-furylmethyl)guanine]",> 16,1.4,2.8,1.5,6.82,6.82,–,–,–,–,2.5
"Nc1nc(OCc2ccc3c(c2)OCO3)c2nc[nH]c2n1 [B.4212, O^6-piperonylguanine]",0.72,–,10.7,2.7,7.70,7.30,1.3,2.3,2.5,considerably better,–
"Nc1nc(OCc2ccc3ccccc3c2)c2nc[nH]c2n1 [B.4213, O^6-(2-naphthylmethyl)guanine]",> 16,2.1,2.9,1.2,6.82,7.52,–,–,–,–,2.0
"Cc1ccc(COc2nc(N)nc3[nH]cnc23)s1 [B.4220, O^6-(5-methylthenyl)guanine]",> 16,1.0,1.0,1.0,5.05,< 6.00,–,–,–,–,1.3
"Cc1ccc(COc2nc(N)nc3[nH]cnc23)o1 [B.4221, O^6-(5-methylfurfuryl)guanine]",> 16,1.0,1.0,1.0,5.00,< 6.00,–,–,–,–,1.0
"Cc1ccsc1COc1nc(N)nc2[nH]cnc12 [B.4222, O^6-(3-methylthenyl)guanine]",> 16,1.9,2.1,1.4,6.19,6.33,–,–,–,–,1.4
"Nc1nc(OCc2cc3ccccc3s2)c2nc[nH]c2n1 [B.4226, O^6-(2-benzo[b]thienylmethyl)guanine]",6.7,1.6,10.0,1.6,7.52,7.22,9.7,3.8,4.5,–,–
"COC(=O)c1ccc(COc2nc(N)nc3[nH]cnc23)o1 [B.4229, O^6-(5-methoxycarbonylfurfuryl)guanine]",> 16,2.1,2.5,1.2,7.05,6.60,–,–,–,–,1.8
"Nc1nc(OCc2ccc(C(=O)O)o2)c2nc[nH]c2n1 [B.4234, O^6-(5-carboxyfurfuryl)guanine]",> 16,1.0,1.0,1.0,4.22,< 6.00,–,–,–,–,0.8
"Nc1nc(OCc2ccc(Br)s2)c2nc[nH]c2n1 [B.4269, O^6-(5-bromothenyl)guanine]",–,–,–,–,8.35,8.22,–,–,–,–,–
